Reference: patent publication US20240059727A1, “METHOD OF MAKING NICOTINAMIDE RIBOFURANOSIDE SALTS BY SALT METATHESIS, THE CRYSTALLINE FORM OF ITS TOSYLATE SALT AND THE CO-CRYSTALLIZED FORM OF ITS CHLORIDE:IODIDE SALT” (BIOSYNTH AG, priority 2021, published 2024)

Assay: Solubility in methanol
Conditions: volume of methanol per 1 g salt; lower volume = better solubility

Compound	methanol needed for dissolving 1 g of the salt
NC(=O)c1ccc[n+]([C@@H]2O[C@H](CO)[C@@H](O)[C@H]2O)c1.[Cl-] [NR·Cl, nicotinamide-β-D-ribofuranoside chloride]	40 mL
NC(=O)c1ccc[n+](C2OC(CO)C(O)C2O)c1.[Br-] [NR·Br, nicotinamide-β-D-ribofuranoside bromide]	50 mL
nicotinamide-β-D-ribofuranoside tosylate [NR·p-tosylate]	15 mL
